We go through two compounds from patent publication US10993957B2 (NuCana plc, priority 2011, dated 2021).

Entries after “also recorded” stand apart in the source; their conditions may differ. Like-named read-outs stand apart in the source and are kept apart here.

One series relates to HeLa. As to the kind of experiment: Cytostatic assay, HeLa cells. Format: cell-based. Particulars: Homo sapiens, HeLa; for CC50: Table 1, read-out: CC50 HeLa; for IC50: Table 6, read-out: IC50 HeLa. The source says:
(§1) The cell lines employed were L1210/0 (a leukemia cell line), FM3A/0 (a breast cancer cell line), Cem/0 (an acute lymphoblastic leukemia cell line) and HeLa (a cervical cell line).

A further series has as its system Cem/hEnt-0. Kind of series: Cytostatic assay, CEM cells lacking the hEnt1 transporter. The format is cell-based. Particulars: Homo sapiens, CCRF-CEM, read-out: IC50 Cem/hEnt-0. The text has this: Data are mean (±SD) of at least two to four independent experiments. Table 8 identifies the phosphoramidate motif of compounds embodying the present invention, as discussed above with respect to Table 6, but with “Naph” standing for 1-naphthyl.

Series [1] deals with T1, thymidylate synthase (TS) (Mus musculus, UniProt P07607). As to the kind of experiment: TS activity in intact L1210/TK^− cells (tritium release). Format: cell-based, murine. Particulars: tritium release from [5-3H]dCyd, 4 hours preincubation; read-out: IC50 against TS, L1210/TK^−. On the procedure: (§2) The activity of TS in intact L1210/0 and L1210/TK^− cells was measured by evaluation of tritium release from [5-^3H]dUMP (formed in the cells from [5-^3H]dUrd or [5-^3H]dCyd) in the reaction catalysed by TS. This method has been described in detail by Balzarini & De Clercq (1984). […] After 30 min, 2 h and 4 h preincubation of the cells with the compounds at 37° C., 1 μCi of [5-^3H]dUrd or [5-^3H]dCyd was added to the cell cultures. After 30 min incubation, 100 μL of the cell suspensions were withdrawn and added to a cold suspension of 500 μL activated charcoal (VWR, Haasrode, Belgium) (100 mg/ml in TCA 5%). After 10 min, the suspension was centrifuged at 13,000 rpm for 10 min, after which the radioactivity in 400 μL supernatant was counted in a liquid sinctillator using OptiPhase HiSafe (Perkin Elmer, Waldham, Mass.).

Series [2] deals with T1, thymidylate synthase (TS). As to the kind of experiment: TS activity in intact L1210/0 cells (tritium release). Format: cell-based, murine. Particulars: for increase of inhibition of 3H release upon longer preincubation times: up to 4 hr versus 30 min. As for the experimental part: as §2
The activity of TS in intact tumour cells can be directly monitored by measuring the tritium release in intact L1210/0 cell cultures that were exposed to [5-^3H]deoxyuridine ([5-^3H]dUrd) or [5-^3H]deoxycytidine ([5-^3H]dCyd). Indeed, after intracellular conversion of [5-^3H]dUrd or [5-^3H]dCyd to [5-^3H]dUMP, the C-5 tritium atom on the pyrimidine base is released during the TS-catalysed reductive methylation.

Another series concerns FM3A/0. Kind of series: Cytostatic assay, FM3A/0 cells. To be noted: Mus musculus, FM3A/0; Table 1; read-out: CC50 FM3A/0. The format is cell-based. On the procedure:
The samples were assayed for biological activity versus a range of tumour cell lines with data recorded in Table 1 below. […] The cell lines employed were L1210/0 (a leukemia cell line), FM3A/0 (a breast cancer cell line), Cem/0 (an acute lymphoblastic leukemia cell line) and HeLa (a cervical cell line).

The next series deals with FM3A/TK^−. As to the kind of experiment: Cytostatic assay, FM3A/TK^− cells. Format: cell-based. To be noted: Mus musculus, Table 1, read-out: CC50 FM3A/TK^−.
Series [3] concerns the target Thymidine Phosphorylase purified from Escherichia coli (Escherichia coli, UniProt P07650). Kind of series: Phosphorylase assay by in situ 19F NMR.
Procedure: Two potassium phosphate buffers at pH=7.4, 200 nM solution and 300 nM solution respectively, were used as phosphate donor. Units of enzyme were defined as the amount of enzyme required to hydrolyse about 0.25 mg of inosine per min used as standard. Assays were conducted for 30 minutes.
The subject of another series is Cem/0. Kind of series: Cytostatic assay, CEM/0 cells. The format is cell-based, human. To be noted: Homo sapiens, CCRF-CEM; for CC50: Table 1, read-out: CC50 Cem/0.
Source text: as §1

For the next series, the target named is E. coli TP (Escherichia coli, UniProt P07650). Kind of series: Phosphorolysis by E. coli TP, HPLC. To be noted: 100 μM compound, room temperature, 0-40 min. On the procedure: Reaction mixtures containing 100 μM test compound and recombinant TP or UP (human TP: 8.6 ng/μL; E. coli TP: 3.0 ng/μL; human UP: 4 ng/mL) in a total volume of 500 μL reaction buffer (10 mM TrisHCl; 300 μM NaCl; 1 mM EDTA; 2 mM KH2PO4/K2HPO4) were incubated at room temperature. At different time points (i.e. 0, 20, 40 min) 100 μL aliquots of the reaction mixtures were withdrawn and heated at 95° C. for 3 min to inactivate the enzyme. The resulting reaction products were separated on a reverse-phase RP-8 column (Merck, Darmstadt, Germany) and quantified by HPLC analysis (Alliance 2690, Waters, Milford, Mass.). […] UV-based detection was performed at 267 nm. The separation of Urd from uracil was performed by a linear gradient from 100% separation buffer (see above) to 60% separation buffer+40% acetonitrile (3 min 100% separation buffer; 6 min linear gradient of 100% separation buffer to 60% separation buffer+40% acetonitrile; 6 min 60% separation buffer+40% acetonitrile, followed by equilibration at 100% separation buffer). UV-based detection was performed at 258 nm.

Setting [4] is: L1210/0, 30 min preincubation, both substrates, read-out: IC50 for tritium release from [5-3H]dCyd and [5-3H]dUrd.
Setting [5] is: intact L1210/0 cells, 30 min exposure, read-out: IC50 Tritium release from dCyd*.
The mark [6] stands for this setting: intact L1210/0 cells, 30 min exposure, read-out: IC50 Tritium release from dUrd*.
Setting [7] is: tritium release from [5-3H]dCyd, 4 hours preincubation, read-out: IC50 against TS, L1210/0.

Chain of Thymidine Phosphorylase purified from Escherichia coli (P07650 whole entry): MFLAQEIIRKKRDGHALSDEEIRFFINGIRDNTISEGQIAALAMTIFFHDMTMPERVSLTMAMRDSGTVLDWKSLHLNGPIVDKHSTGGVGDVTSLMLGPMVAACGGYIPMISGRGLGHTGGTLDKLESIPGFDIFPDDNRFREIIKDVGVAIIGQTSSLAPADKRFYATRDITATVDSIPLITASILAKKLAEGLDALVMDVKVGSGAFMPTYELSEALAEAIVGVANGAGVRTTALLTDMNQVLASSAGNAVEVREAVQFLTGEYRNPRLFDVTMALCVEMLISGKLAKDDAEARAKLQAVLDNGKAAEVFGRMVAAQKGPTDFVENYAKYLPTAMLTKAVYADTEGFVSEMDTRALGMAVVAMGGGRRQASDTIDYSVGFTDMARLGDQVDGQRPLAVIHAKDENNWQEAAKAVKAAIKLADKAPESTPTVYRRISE
T1 sequence (P07607 whole entry): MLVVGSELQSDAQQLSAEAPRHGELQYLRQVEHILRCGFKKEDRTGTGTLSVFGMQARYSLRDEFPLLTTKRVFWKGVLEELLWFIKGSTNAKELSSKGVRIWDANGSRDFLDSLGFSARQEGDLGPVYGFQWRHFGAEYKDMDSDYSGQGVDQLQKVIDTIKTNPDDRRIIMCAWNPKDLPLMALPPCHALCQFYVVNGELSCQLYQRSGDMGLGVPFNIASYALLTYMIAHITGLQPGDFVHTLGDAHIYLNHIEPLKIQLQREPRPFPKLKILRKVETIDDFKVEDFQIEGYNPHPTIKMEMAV
Chain of E. coli TP (P07650 whole entry): as the sequence (P07650 whole entry) above

For `O=c1[nH]c(=O)n([C@H]2C[C@H](O)[C@@H](CO)O2)cc1F` [5-FdUrd, 5-fluoro-2′-deoxyuridine, reference compound], the CC50 in the series with HeLa came to 0.029 ± 0.007 µM; in the series on FM3A/0, 0.0065 ± 0.0055 µM; in the series on FM3A/TK^−, 0.7 ± 0.02 µM; with Cem/0, 0.028 ± 0.002 µM. The IC50 was 0.05 ± 0.011 µM in the series with HeLa; 2.5 ± 0.65 µM in the series on Cem/hEnt-0; 1.42 ± 0.09 µM in series [1]; 0.0007 to 0.0009 µM in series [2] (setting [4]); 0.0007 µM in [2] (setting [5]); 0.0009 ± 0.0002 µM in series [2] (setting [6]). The IC50 is 0.0003 µM in series [2] (setting [7]); 0.028 µM in the series with Cem/0 (Table 3, read-out: IC50 CEM/0); 0.022 ± 0.006 µM with Cem/0 (Table 6, read-out: IC50 Cem/0). Moreover, the “increase of inhibition of 3H release upon longer preincubation times” value in series [2] was 2 fold. Moreover, in [3] (potassium phosphate buffer increased to 205 nM), the “Conversion of substrate into the base 5-FU” value is “fully converted”. For the same compound, in [3] (potassium phosphate buffer, pH 7.4, TP 20.7 UNI, 25° C.), the “Conversion of nucleoside into the free base 5FU” value was 66%. The “Phosphorolysis by E. coli TP” value at E. coli TP is on record as “rapidly converted”.

In the case of `C[C@H](NP(=O)(OC[C@H]1O[C@@H](n2cc(F)c(=O)[nH]c2=O)CC1O)Oc1cccc2ccccc12)C(=O)OCc1ccccc1` (stereo partly drawn) [CPF 373, 5-Fluoro-2′deoxyuridine-5′-O-[1-naphthyl (benzoxy-L-alaninyl)] phosphate], the CC50 worked out at 0.065 ± 0.013 µM in the series with HeLa, 0.059 ± 0.046 µM in the series with FM3A/0, 0.74 ± 0.18 µM with FM3A/TK^− and 0.089 ± 0.043 µM in the series with Cem/0. In addition, the IC50 was 0.065 ± 0.013 µM in the series with HeLa; 0.6 ± 0.11 µM in the series with Cem/hEnt-0; 0.053 µM in series [1]; 0.16 to 0.19 µM in series [2] (setting [4]); 0.19 ± 0.08 µM in [2] (setting [5]); 0.16 ± 0.05 µM in series [2] (setting [6]). In addition, the IC50 in series [2] (setting [7]) came out at 0.013 µM; with Cem/0 (Table 3, read-out: IC50 CEM/0), 0.089 µM; in the series with Cem/0 (Table 6, read-out: IC50 Cem/0), 0.068 ± 0.035 µM. Further, in series [2] (30 min preincubation), the “inhibitory activity on tritium release less pronounced than that of 5-FdUrd” value is recorded as roughly 200 fold. Also, in series [2], the “increase of inhibition of 3H release upon longer preincubation times” value was found to be 10 fold. For the same compound, the “Stability in the presence of TP (19F NMR)” value in series [3] (with and without TP, repeated after days) was “completely stable; also recorded: evident stability against TP enzymatic activity”. Also, on E. coli TP, the “Phosphorolysis by E. coli TP” value is on record as “fully stable”.
